Results on nine compounds are retold here after patent US20240376097A1, “BCL-2 Inhibitor” (BeiGene Ltd., priority 2020, published 2024).

In assay [1] the target is Recombinant human Bcl-2 protein (Homo sapiens (Human), UniProt P10415). In words: Bcl-2 TR-FRET Assay. The assay is classed as binding. The note with it: Bcl-2 wild type, TR-FRET; read-out: Biochemical assay (IC50, nM) Bcl-2 WT. The gist of the method: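 Compounds were pre-incubated with 0.05 nM recombinant Bcl-2 for 0.5 h at room temperature in potassium phosphate buffer, pH 7.5. FITC-Bak peptide (0.5 nM) and Tb-cryptate antibody were then added for 1 h. Percent inhibition from TR-FRET signals gave IC50 values.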
Background: Time-resolved FRET reads energy transfer from a long-lived donor to a nearby acceptor.

Assay [2] concerns RS4;11 (BCL-2 dependent acute lymphoblastic leukemia cell line). In words: RS4;11 Cell Proliferation Assay. The assay is classed as cell-based. As to conditions: Homo sapiens, RS4-11, RS4;11 cells, read-out: Cellular proliferation assay (IC50, nM) RS4. The gist of the method:
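RS4;11 cells, 50,000 per well in RPMI-1640 with 10% FBS, treated 48 h at 37 °C with a 10-point dilution series topping at 1 μM. Viability read by CellTiter-Glo ATP luminescence; mean IC50 reported.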

The test system of assay [3] is recombinant human Bcl-2-G101V protein. The experiment in a line: Bcl-2-G101V TR-FRET Assay. As to conditions: ratio of biochemical IC50 Bcl-2 G101V / Bcl-2 WT. The assay is classed as binding. The gist of the method: (§1)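 Ex337/em490 & 520 nm TR-FRET; % inhibition of Bcl-2-G101V–ligand interaction from 490:520 ratio vs. increasing compound conc.; IC50 by 4-parameter logistic fit.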

Assay [4] has as its target recombinant human Bcl-2-G101V protein (Homo sapiens (Human), UniProt P10415, G101V). In words: Bcl-2-G101V TR-FRET Assay. The format is binding. As to conditions: Bcl-2 G101V mutant, TR-FRET; read-out: Biochemical assay (IC50, nM) Bcl-2 G101V. The gist of the method: as §1
The subject of assay [5] is BCL-2 G101V knock-in cell line H96 (derive from RS4;11). The experiment in a line: Bcl 2-G101V Knock-In RS4;11 Cell Proliferation Assay. The assay is classed as cell-based. The note with it: Homo sapiens, RS4;11 Bcl-2 G101V knock-in clone H96, 48 hrs, CellTiter-GLO, read-out: Cellular proliferation assay (IC50, nM) RS4. The gist of the method:
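H96, a CRISPR-generated RS4;11 clone carrying BCL2-G101V knock-in (WES/RNA-seq validated), seeded 50,000 per well and exposed 48 h at 37 °C to 10-point dilutions topping at 1 or 10 μM. Viability by CellTiter-Glo luminescence; mean IC50.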
For orientation: In ATP-based viability assays light output follows the ATP content of the culture.

On to `COc1cc(CN2CCN(C3CC4(CCN(c5ccc(C(=O)NS(=O)(=O)c6ccc(NC[C@H]7CC[C@](C)(O)CC7)c([N+](=O)[O-])c6)c(Oc6cnc7[nH]ccc7c6)c5)CC4)C3)C(c3ccccc3C(C)C)C2)cc(F)c1OC` (stereo partly drawn) [Example 152, 2-((1H-pyrrolo[2,3-b]pyridin-5-yl)oxy)-4-(2-(4-(3-fluoro-4,5-dimethoxybenzyl)-2-(2-isopropylphenyl)piperazin-1-yl)-7-azaspiro[3.5]nonan-7-yl)-N-((4-((((1r,4r)-4-hydroxy-4-methylcyclohexyl)methyl)amino)-3-nitrophenyl)sulfonyl)benzamide], for which the IC50 in assay [1] amounted to 0.25 nM; in assay [2], 0.35 nM; in assay [4] it was 0.89 nM; in assay [5], 1.31 nM. Besides, in assay [3], the “Ratio of Bcl-2 G101V/WT” value is 3.5.
Regarding `CCc1ccc(CN2CCN(C3CC4(CCN(c5ccc(C(=O)NS(=O)(=O)c6ccc(NC[C@H]7CC[C@](C)(O)CC7)c([N+](=O)[O-])c6)c(Oc6cnc7[nH]ccc7c6)c5)CC4)C3)C(c3ccccc3C(C)C)C2)cc1` (stereo partly drawn) [Example 153], the IC50 amounted to 0.6 nM in assay [1], 0.75 nM in assay [2], 2.7 nM in assay [4] and 6.48 nM in assay [5]. Moreover, the “Ratio of Bcl-2 G101V/WT” value in assay [3] is recorded as 4.4.
With `COc1cnc(CN2CCN(C3CC4(CCN(c5ccc(C(=O)NS(=O)(=O)c6ccc(NC[C@H]7CC[C@](C)(O)CC7)c([N+](=O)[O-])c6)c(Oc6cnc7[nH]ccc7c6)c5)CC4)C3)C(c3ccccc3C(C)C)C2)cn1` (stereo partly drawn) [Example 154, 2-((1H-pyrrolo[2,3-b]pyridin-5-yl)oxy)-N-((4-((((1r,4r)-4-hydroxy-4-methylcyclohexyl)methyl)amino)-3-nitrophenyl)sulfonyl)-4-(2-(2-(2-isopropylphenyl)-4-((5-methoxypyrazin-2-yl)methyl)piperazin-1-yl)-7-azaspiro[3.5]nonan-7-yl)benzamide], the IC50 in assay [1] is 0.05 nM; in assay [2], 0.38 nM; in assay [4] it was 0.3 nM; in assay [5] it was 2.22 nM. Further, the “Ratio of Bcl-2 G101V/WT” value in assay [3] worked out at 6.
On to `COc1cc(CN2CCN(C3CC4(CCN(c5ccc(C(=O)NS(=O)(=O)c6ccc(NC[C@H]7CC[C@](C)(O)CC7)c([N+](=O)[O-])c6)c(Oc6cnc7[nH]ccc7c6)c5)CC4)C3)C(c3ccccc3C(C)C)C2)ccc1C1CC1` (stereo partly drawn) [Example 156, 2-((1H-pyrrolo[2,3-b]pyridin-5-yl)oxy)-4-(2-(4-(4-cyclopropyl-3-methoxybenzyl)-2-(2-isopropylphenyl)piperazin-1-yl)-7-azaspiro[3.5]nonan-7-yl)-N-((4-((((1r,4r)-4-hydroxy-4-methylcyclohexyl)methyl)amino)-3-nitrophenyl)sulfonyl)benzamide], for which the IC50 came out at 0.73 nM in assay [1], 0.375 nM in assay [2], 3.6 nM in assay [4] and 1.42 nM in assay [5]. Moreover, the “Ratio of Bcl-2 G101V/WT” value in assay [3] was 4.9.
For `COc1ccc(CN2CCN(C3CC4(CCN(c5ccc(C(=O)NS(=O)(=O)c6ccc(NC[C@H]7CC[C@](C)(O)CC7)c([N+](=O)[O-])c6)c(Oc6cnc7[nH]cc(F)c7c6)c5)CC4)C3)C(c3ccccc3C(C)C)C2)cc1OC(F)F` (stereo partly drawn) [Example 159, 4-(2-(4-(3-(difluoromethoxy)-4-methoxybenzyl)-2-(2-isopropylphenyl)piperazin-1-yl)-7-azaspiro[3.5]nonan-7-yl)-2-((3-fluoro-1H-pyrrolo[2,3-b]pyridin-5-yl)oxy)-N-((4-((((1r,4r)-4-hydroxy-4-methylcyclohexyl)methyl)amino)-3-nitrophenyl)sulfonyl) benzamide], in that order: 0.12 nM, 0.386 nM, 0.4 nM, 1.71 nM and 3.4.
On the same counts, the results for `CC(C)c1ccccc1C1CN(Cc2ccc(C3CC3)cc2)CCN1C1CC2(CCN(c3ccc(C(=O)NS(=O)(=O)c4ccc(NC[C@H]5CC[C@](C)(O)CC5)c([N+](=O)[O-])c4)c(Oc4cnc5[nH]cc(F)c5c4)c3)CC2)C1` (stereo partly drawn) [Example 160, 4-(2-(4-(4-cyclopropylbenzyl)-2-(2-isopropylphenyl)piperazin-1-yl)-7-azaspiro[3.5]nonan-7-yl)-2-((3-fluoro-1H-pyrrolo[2,3-b]pyridin-5-yl)oxy)-N-((4-((((1r,4r)-4-hydroxy-4-methylcyclohexyl)methyl)amino)-3-nitrophenyl)sulfonyl) benzamide] are 1.2 nM, 0.564 nM, 6 nM, 2.87 nM and 5.
`COc1cc(CN2CCN(C3CC4(CCN(c5ccc(C(=O)NS(=O)(=O)c6ccc(NC[C@H]7CC[C@](C)(O)CC7)c([N+](=O)[O-])c6)c(Oc6cnc7[nH]cc(F)c7c6)c5)CC4)C3)C(c3ccccc3C(C)C)C2)ccc1C1CC1` (stereo partly drawn) [Example 161, 4-(2-(4-(4-cyclopropyl-3-methoxybenzyl)-2-(2-isopropylphenyl)piperazin-1-yl)-7-azaspiro[3.5]nonan-7-yl)-2-((3-fluoro-1H-pyrrolo[2,3-b]pyridin-5-yl)oxy)-N-((4-((((1r,4r)-4-hydroxy-4-methylcyclohexyl)methyl)amino)-3-nitrophenyl)sulfonyl) benzamide]: the IC50 in assay [1] stood at 0.42 nM; in assay [2], 0.46 nM; in assay [4], 3.9 nM; in assay [5], 1.22 nM. The “Ratio of Bcl-2 G101V/WT” value in assay [3] is reported as 6.8.
On the same counts, the results for `COc1ccc(CN2CCN(C3CC4(CCN(c5ccc(C(=O)NS(=O)(=O)c6ccc(NC[C@H]7CC[C@](C)(O)CC7)c([N+](=O)[O-])c6)c(Oc6cnc7[nH]ccc7c6)c5)CC4)C3)C(c3ccccc3C(C)C)C2)cc1OC(F)(F)F` (stereo partly drawn) [Example 163, 2-((1H-pyrrolo[2,3-b]pyridin-5-yl)oxy)-N-((4-((((1r,4r)-4-hydroxy-4-methylcyclohexyl)methyl)amino)-3-nitrophenyl)sulfonyl)-4-(2-(2-(2-isopropylphenyl)-4-(4-methoxy-3-(trifluoromethoxy)benzyl)piperazin-1-yl)-7-azaspiro[3.5]nonan-7-yl)benzamide] are 1.3 nM, 1.08 nM, 5.5 nM, 9.2 nM and 4.3.
Consider `CC(C)c1ccccc1C1CN(Cc2ccc3c(c2)OC(F)(F)O3)CCN1C1CC2(CCN(c3ccc(C(=O)NS(=O)(=O)c4ccc(NC[C@H]5CC[C@](C)(O)CC5)c([N+](=O)[O-])c4)c(Oc4cnc5[nH]ccc5c4)c3)CC2)C1` (stereo partly drawn) [Example 168, 2-((1H-pyrrolo[2,3-b]pyridin-5-yl)oxy)-4-(2-(4-((2,2-difluorobenzo[d] [1,3]dioxol-5-yl)methyl)-2-(2-isopropylphenyl)piperazin-1-yl)-7-azaspiro[3.5]nonan-7-yl)-N-((4-((((1r,4r)-4-hydroxy-4-methylcyclohexyl)methyl)amino)-3-nitrophenyl)sulfonyl)benzamide], for which the IC50 in assay [1] worked out at 0.79 nM; in assay [2] it was 0.48 nM; in assay [4] it was 4.6 nM; in assay [5], 1.68 nM. Further, the “Ratio of Bcl-2 G101V/WT” value in assay [3] was determined as 5.9.
